Assay results as given in patent US6409996B1, “Composition comprising one or more flavonoids, method of obtaining such composition and use thereof as UV-absorbing agent” (Flavone Sunproducts A/S, priority 1997, dated 2002).

Assay: solubility experiment in water at room temperature
Format: physicochemical
Description: A solubility experiment was carried out in which commercially available naringin was dissolved in water at room temperature. The naringin was dissolved in an amount of 0.1 g/l corresponding to around 0.01 weight-%. A pulverous test sample of a composition obtained from Citrus Aurantium by the method according to the invention and comprising about 20 weight-% naringin was also dissolved in water at room temperature. The composition was dissolved in an amount of […], corresponding to a […] solution of naringin weight-%. Accordingly the solubility of naringin is 300 times higher in water when obtained by the method according to the invention and being in the composition obtained from Citrus Aurantium by said method, than commercially available naringin.

## C[C@@H]1O[C@@H](O[C@H]2[C@H](Oc3cc(O)c4c(c3)O[C@H](c3ccc(O)cc3)CC4=O)O[C@H](CO)[C@@H](O)[C@@H]2O)[C@H](O)[C@H](O)[C@H]1O [naringin, naringenin-7β-neohesperidoside; 5,7,4′-trihydroxyflavanone-7β-neohesperidoside]
  amount dissolved in water: 0.1 g/L
Commercially available naringin
  amount dissolved in water, as weight-%: around 0.01 weight-%
